# Source: article PMC11861906, “Structural basis for lipid-mediated activation of G protein-coupled receptor GPR55” (Nature Communications, 2025)
# Biological target: wt GPR55 (Gα12) (Homo sapiens, UniProt Q9Y2T6)
# Experiment: BRET² G protein dissociation assay, wt GPR55 with Gα12
# Type: cell-based
# Settings: for ΔBRET² ratio (Mean): GPR55-wt-G12
# From the text: Guided by structural insights, we employed the G protein dissociation assay to validate the G protein selectivity of GPR55. The sequences of Gα13 and Gα12 are highly similar (76% sequence similarity) and only seven Gα13 residues differ within a 4 Å sphere of the receptor- G protein interaction site (Fig. 5d). Therefore, we included Gα12 in our assays as a control since it was reported that 1-AG-PI-activated GPR55 signals exclusively via Gα13[10]. Herein, we observed robust G protein activation (concluded from a BRET² ratio decrease) when GPR55 was co-expressed with Gα13 (Fig. 5b), even without the addition of any ligand. (Fig. 2f and Supplementary Table S3). This observation is indicative of constitutive activity; however, it could also be explained by GPR55 interaction with cellular lipids that are ubiquitously present. […] (Fig. 5c).
# G protein dissociation assays were performed according to the original protocols of the TRUPATH BRET² assay[47],[87] but with subtle modifications as previously described[61],[88],[89]. All reagents and cells were obtained from Thermo Fisher Scientific unless indicated otherwise. The coding sequences for the G protein biosensors[47] (Gα12-Rluc8, Gα13-Rluc8, wt Gβ3, and Gγ9-GFP), the wt GPR55, the construct used for cryo-EM (with GFP bearing a G67A mutation to disrupt fluorescence properties[48] for BRET² assays), GPR55 binding pocket mutants (G152^4.56F, G152^4.56W, N171^ECL2Q, N171^ECL2A, T176^5.33A, R253^6.62A), and the wt TBXA2R were codon-optimized for Homo sapiens, gene-synthesized, and sub-cloned into pcDNA^TM3.1(+) between NheI and HindIII restriction sites by GeneArt (Thermo Fisher Scientific). […] Freshly grown cells were washed with Dulbecco’s Balanced Salt Solution (DPBS, cat. #14200075) and detached using trypsin-ethylenediaminetetraacetic acid (trypsin-EDTA) (cat. #25300-062). Then, the cells were reconstituted to 500,000 cells per mL with fresh medium, and 1,000,000 cells were seeded into each well of a 6-well plate. After 3 h incubation at 37 °C and 5% CO2, adherent cells were transfected with 600 ng DNA (1:1:1:1 ratio of plasmid DNA for GPR55, wt Gβ3, Gγ9-GFP, and Gα12-Rluc8 or Gα13-Rluc8). Plasmid DNA was mixed with 1.5 µL Lipofectamine^TM 2000 (cat. #11668027) in Opti-MEM^TM medium (cat. #31985062) and incubated for 20 min. Then, the mixture was added to each well of the 6-well plate following 24 h incubation at 37 °C and 5% CO2. Transfected cells were washed with DPBS, detached using EDTA (Versene, cat. #15040066), and reconstituted into fresh medium at 500,000 cells mL^−1. From this suspension, 50,000 cells were seeded into each well of a white-bottom 96-well plate (Nunc^TM MicroWell^TM 96 wells, cat. #136101) following overnight incubation at 37 °C and 5% CO2. Then, the adherent cells were washed with assay medium [Hank’s balanced salt solution (HBSS, cat. #14065056) plus 20 mM HEPES pH 7.4 (cat. #15630056)] and finally reconstituted into 50 µL of the same medium. […] Methoxy e-Coelenterazine was used as luciferase substrate (Prolume Purple, NanoLight Technology, cat. #369), reconstituted at 1 mM in methanol and diluted to 37.5 µM with assay buffer (7.5 µM final assay concentration). The assay was started by the addition of 20 µL luciferase substrate to each well of the assay plate using a Multidrop^TM Combi reagent dispenser (Thermo Fisher Scientific), followed by 5 min incubation at room temperature. Then, 30 µL of agonist dilutions or DMSO control was added (final DMSO concentration 1.5%), followed by an additional 5 min incubation at room temperature.
# Sequence of wt GPR55 (Gα12) (Q9Y2T6 whole entry): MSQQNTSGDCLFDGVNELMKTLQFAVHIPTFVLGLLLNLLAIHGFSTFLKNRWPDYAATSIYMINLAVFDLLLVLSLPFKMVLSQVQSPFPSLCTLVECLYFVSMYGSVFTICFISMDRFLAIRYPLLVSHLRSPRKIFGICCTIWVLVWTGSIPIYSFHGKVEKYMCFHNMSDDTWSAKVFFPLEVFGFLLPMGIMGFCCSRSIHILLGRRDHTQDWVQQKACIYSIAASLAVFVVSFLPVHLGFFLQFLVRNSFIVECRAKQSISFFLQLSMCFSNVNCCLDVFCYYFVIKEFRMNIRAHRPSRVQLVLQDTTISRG
ΔBRET² ratio (Mean) (3e-10 M),ΔBRET² ratio (Mean) (1e-9 M),ΔBRET² ratio (Mean) (3e-9 M),ΔBRET² ratio (Mean) (1e-8 M),ΔBRET² ratio (Mean) (3e-8 M),ΔBRET² ratio (Mean) (1e-7 M),ΔBRET² ratio (Mean) (3e-7 M),ΔBRET² ratio (Mean) (1e-6 M),ΔBRET² ratio (Mean) (3e-6 M),ΔBRET² ratio (Mean) (1e-5 M),ΔBRET² ratio (Mean) (3e-5 M),"G protein activation at GPR55-transfected cells (in words) (wt GPR55, Gα12)",SMILES
0.009016,0.003569,-0.002484,-0.008889,-0.006497,-0.00961,-0.01427,-0.01536,-0.01786,-0.02016,-0.02115,–,"Cc1cccc(N2CCN(C(=O)c3cc(S(=O)(=O)N(C)C)ccc3N3CCCC3)CC2)c1C [ML184, 3-[[4-(2,3-dimethylphenyl)-1-piperazinyl]carbonyl]-N,N-dimethyl-4-(1-pyrrolidinyl)benzenesulfonamide]"
–,–,–,–,–,–,–,–,–,–,–,inactive,CCCCC[C@H](O)/C=C/[C@@H]1[C@@H](C/C=C\CCCC(=O)O)[C@H]2CO[C@@H]1C2 [U-46619]
